{
  "source": "paper PMC5218480",
  "about": "(PLoS ONE, 2017)",
  "system": "MV-4-11 cells",
  "test": "Gene expression microarray analysis (Affymetrix PrimeView) and GSEA",
  "assay_type": "cell-based, human",
  "design": "RFU PODN (11730768_x_at) / Fold change /veh PODN (11730768_x_at) / RFU LINC00158 (11744669_a_at) / Fold change /veh LINC00158 (11744669_a_at) / RFU DUSP10 (11751237_a_at) / Fold change /veh DUSP10 (11751237_a_at) / RFU ID3 (11757404_x_at) / Fold change /veh ID3 (11757404_x_at) / RFU PLEKHG5 (11737974_s_at) / Fold change /veh PLEKHG5 (11737974_s_at) / RFU LRRC4B (11730491_at) / Fold change /veh LRRC4B (11730491_at) / RFU GIMAP4 (11747438_a_at) / Fold change /veh GIMAP4 (11747438_a_at) / RFU KRT8 (11758183_x_at) / Fold change /veh KRT8 (11758183_x_at) / RFU CNN1 (11734310_a_at) / Fold change /veh CNN1 (11734310_a_at) / RFU VPS37D (11726825_at) / Fold change /veh VPS37D (11726825_at) / RFU C10orf10 (11716522_x_at) / Fold change /veh C10orf10 (11716522_x_at) / RFU KIR2DL2 /// KIR2DL4 /// KIR2DL5A /// KIR2DL5B /// KIR2DS1 /// KIR2DS2 /// KIR2DS3 /// KIR2DS4 /// KIR3DL3 /// KIR3DL3 /// KIR3DS1 (11738374_at) / Fold change /veh KIR2DL2 /// KIR2DL4 /// KIR2DL5A /// KIR2DL5B /// KIR2DS1 /// KIR2DS2 /// KIR2DS3 /// KIR2DS4 /// KIR3DL3 /// KIR3DL3 /// KIR3DS1 (11738374_at) / RFU C1QL1 (11718748_at) / Fold change /veh C1QL1 (11718748_at) / RFU TMPRSS4 (11747572_a_at) / Fold change /veh TMPRSS4 (11747572_a_at) / RFU HAMP (11756126_x_at) / Fold change /veh HAMP (11756126_x_at) / RFU RNFT2 (11725882_a_at) / Fold change /veh RNFT2 (11725882_a_at) / RFU NR4A2 (11747474_a_at) / Fold change /veh NR4A2 (11747474_a_at) / RFU ABCC12 (11746883_a_at) / Fold change /veh ABCC12 (11746883_a_at) / RFU TMEM136 (11760407_x_at) / Fold change /veh TMEM136 (11760407_x_at) / RFU CLDN22 /// WWC2 (11732394_at) / Fold change /veh CLDN22 /// WWC2 (11732394_at) / RFU HLA-DPB1 (11760878_x_at) / Fold change /veh HLA-DPB1 (11760878_x_at) / RFU SPINT1 (11716480_a_at) / Fold change /veh SPINT1 (11716480_a_at) / RFU GAP43 (11754022_s_at) / Fold change /veh GAP43 (11754022_s_at) / RFU A4GNT (11735810_at) / Fold change /veh A4GNT (11735810_at) / RFU PRB3 (11715151_x_at) / Fold change /veh PRB3 (11715151_x_at) / RFU TUBB4B (11761932_at) / Fold change /veh TUBB4B (11761932_at) / RFU CAPN14 (11732068_a_at) / Fold change /veh CAPN14 (11732068_a_at) / RFU TMCC2 (11721928_a_at) / Fold change /veh TMCC2 (11721928_a_at) / RFU IRGQ (11745062_a_at) / Fold change /veh IRGQ (11745062_a_at) / RFU FAM174B (11720279_a_at) / Fold change /veh FAM174B (11720279_a_at) / RFU TMPRSS4 (11748680_a_at) / Fold change /veh TMPRSS4 (11748680_a_at) / RFU FAM212B (11763350_a_at) / Fold change /veh FAM212B (11763350_a_at) / RFU PLEKHG5 (11743358_a_at) / Fold change /veh PLEKHG5 (11743358_a_at) / RFU ZSCAN30 (11745921_a_at) / Fold change /veh ZSCAN30 (11745921_a_at) / RFU CMKLR1 (11741424_a_at) / Fold change /veh CMKLR1 (11741424_a_at) / RFU LOC101060620 /// MAPK8IP1 (11723275_at) / Fold change /veh LOC101060620 /// MAPK8IP1 (11723275_at) / RFU SPTSSB (11747773_x_at) / Fold change /veh SPTSSB (11747773_x_at) / RFU PRSS12 (11739890_at) / Fold change /veh PRSS12 (11739890_at) / RFU BIN1 (11741810_x_at) / Fold change /veh BIN1 (11741810_x_at) / RFU WNT11 (11732464_a_at) / Fold change /veh WNT11 (11732464_a_at) / RFU C10orf10 (11716521_a_at) / Fold change /veh C10orf10 (11716521_a_at) / RFU C5orf56 (11738089_at) / Fold change /veh C5orf56 (11738089_at) / RFU CYB561 (11721691_x_at) / Fold change /veh CYB561 (11721691_x_at) / RFU ANKRD19P (11752326_a_at) / Fold change /veh ANKRD19P (11752326_a_at) / RFU OR2T12 /// OR2T33 /// OR2T8 (11738714_s_at) / Fold change /veh OR2T12 /// OR2T33 /// OR2T8 (11738714_s_at) / RFU VCAN (11748164_a_at) / Fold change /veh VCAN (11748164_a_at) / RFU JSRP1 (11732532_at) / Fold change /veh JSRP1 (11732532_at) / RFU KRTAP10-11 (11738290_x_at) / Fold change /veh KRTAP10-11 (11738290_x_at) / RFU MYO3A (11730013_a_at) / Fold change /veh MYO3A (11730013_a_at) / RFU EBF3 (11725865_a_at) / Fold change /veh EBF3 (11725865_a_at) / RFU CAMK2N1 (11719241_x_at) / Fold change /veh CAMK2N1 (11719241_x_at) / RFU C5orf56 (11738088_a_at) / Fold change /veh C5orf56 (11738088_a_at) / RFU OLFML3 (11715873_a_at) / Fold change /veh OLFML3 (11715873_a_at) / RFU LOC100653217 /// NTM (11731650_a_at) / Fold change /veh LOC100653217 /// NTM (11731650_a_at) / RFU MAPK11 (11762145_a_at) / Fold change /veh MAPK11 (11762145_a_at) / RFU FIZ1 (11724087_x_at) / Fold change /veh FIZ1 (11724087_x_at) / RFU OASL (11726364_x_at) / Fold change /veh OASL (11726364_x_at) / RFU SOX15 (11748057_x_at) / Fold change /veh SOX15 (11748057_x_at) / RFU CD79A (11719716_a_at) / Fold change /veh CD79A (11719716_a_at) / RFU HIST1H1D (11736915_at) / Fold change /veh HIST1H1D (11736915_at) / RFU CASKIN2 (11723855_a_at) / Fold change /veh CASKIN2 (11723855_a_at) / RFU LOC730098 (11760151_x_at) / Fold change /veh LOC730098 (11760151_x_at) / RFU OR4N2 (11742367_at) / Fold change /veh OR4N2 (11742367_at) / RFU PRRT2 (11749266_a_at) / Fold change /veh PRRT2 (11749266_a_at) / RFU SNX32 (11753110_a_at) / Fold change /veh SNX32 (11753110_a_at) / RFU CDHR5 (11726645_a_at) / Fold change /veh CDHR5 (11726645_a_at) / RFU RCAN1 (11760418_a_at) / Fold change /veh RCAN1 (11760418_a_at) / RFU FAM167A (11723789_a_at) / Fold change /veh FAM167A (11723789_a_at) / RFU FAM26E (11764081_at) / Fold change /veh FAM26E (11764081_at) / RFU ISYNA1 (11749810_s_at) / Fold change /veh ISYNA1 (11749810_s_at) / RFU ACY1 (11761880_at) / Fold change /veh ACY1 (11761880_at) / RFU 11764098_at / Fold change /veh 11764098_at / RFU SAMD14 (11745864_x_at) / Fold change /veh SAMD14 (11745864_x_at) / RFU NPB (11741838_a_at) / Fold change /veh NPB (11741838_a_at) / RFU TMPRSS6 (11731388_a_at) / Fold change /veh TMPRSS6 (11731388_a_at) / RFU KRTAP10-2 (11738614_at) / Fold change /veh KRTAP10-2 (11738614_at) / RFU ARHGAP8 /// PRR5-ARHGAP8 (11727945_x_at) / Fold change /veh ARHGAP8 /// PRR5-ARHGAP8 (11727945_x_at) / RFU KRTAP5-7 /// NADSYN1 (11734609_at) / Fold change /veh KRTAP5-7 /// NADSYN1 (11734609_at) / RFU RASL12 (11751679_a_at) / Fold change /veh RASL12 (11751679_a_at) / RFU CDKN2B (11736163_a_at) / Fold change /veh CDKN2B (11736163_a_at) / RFU PRF1 (11729649_at) / Fold change /veh PRF1 (11729649_at) / RFU, ZNF638 /// ZNF638-IT1 / Fold change vs veh, ZNF638 /// ZNF638-IT1 / RFU, PANK3 / Fold change vs veh, PANK3 / RFU, SH3YL1 / Fold change vs veh, SH3YL1 / RFU, ZEB2 / Fold change vs veh, ZEB2 / RFU, NRIP1 / Fold change vs veh, NRIP1 / RFU, PTTG1IP / Fold change vs veh, PTTG1IP / RFU, CAPN2 / Fold change vs veh, CAPN2 / RFU, MED14 / Fold change vs veh, MED14 / RFU, SNORA58 / Fold change vs veh, SNORA58 / RFU, C1orf63 / Fold change vs veh, C1orf63 / RFU, LRRFIP1 / Fold change vs veh, LRRFIP1 / RFU, NDUFAF7 / Fold change vs veh, NDUFAF7 / RFU, SLC12A2 / Fold change vs veh, SLC12A2 / RFU, IBTK / Fold change vs veh, IBTK / RFU, ESF1 / Fold change vs veh, ESF1 / Fold change vs veh, TMEM50B / RFU, TAOK1 / Fold change vs veh, TAOK1 / RFU, ACBD3 / Fold change vs veh, ACBD3 / RFU, TMA16 / Fold change vs veh, TMA16 / RFU, RWDD3 / Fold change vs veh, RWDD3 / RFU, BCAT1 / Fold change vs veh, BCAT1 / RFU, EDEM3 / Fold change vs veh, EDEM3 / RFU, TMEM33 / Fold change vs veh, TMEM33 / RFU, WDR75 / Fold change vs veh, WDR75 / RFU, AHCTF1 / Fold change vs veh, AHCTF1 / RFU, TFRC / Fold change vs veh, TFRC / RFU, ZDHHC17 / Fold change vs veh, ZDHHC17 / RFU, NOM1 / Fold change vs veh, NOM1 / RFU, ARL8B / Fold change vs veh, ARL8B / RFU, ZBTB11 / Fold change vs veh, ZBTB11 / RFU, TAMM41 / Fold change vs veh, TAMM41 / RFU, KIAA1704 /// LOC100996395 / Fold change vs veh, KIAA1704 /// LOC100996395 / RFU, ING1 / Fold change vs veh, ING1 / RFU, TRMT61B / Fold change vs veh, TRMT61B / RFU, FUBP3 / Fold change vs veh, FUBP3 / RFU, TP53 / Fold change vs veh, TP53 / RFU, TNKS2 / Fold change vs veh, TNKS2 / RFU, ZFP14 / Fold change vs veh, ZFP14 / RFU, ACTR2 / Fold change vs veh, ACTR2 / RFU, PPP3R1 / Fold change vs veh, PPP3R1 / RFU, PIK3R1 / Fold change vs veh, PIK3R1 / RFU, HNRNPA1 / Fold change vs veh, HNRNPA1 / RFU, RNF170 / Fold change vs veh, RNF170 / RFU, ZNF28 / Fold change vs veh, ZNF28 / RFU, RNGTT / Fold change vs veh, RNGTT / RFU, OGT / Fold change vs veh, OGT / RFU, BRD1 / Fold change vs veh, BRD1 / RFU, MARS / Fold change vs veh, MARS / RFU, ZNF655 / Fold change vs veh, ZNF655 / RFU, FAHD1 / Fold change vs veh, FAHD1 / RFU, BDP1 / Fold change vs veh, BDP1 / RFU, LRRCC1 / Fold change vs veh, LRRCC1 / RFU, ARID1A / Fold change vs veh, ARID1A / RFU, ZNF146 / Fold change vs veh, ZNF146 / RFU, ZNF330 / Fold change vs veh, ZNF330 / RFU, GPN3 / Fold change vs veh, GPN3 / RFU, C9orf123 / Fold change vs veh, C9orf123 / RFU, N4BP2L2 / Fold change vs veh, N4BP2L2 / RFU, ARFIP1 / Fold change vs veh, ARFIP1 / RFU, FAM179B / Fold change vs veh, FAM179B / RFU, BCL10 / Fold change vs veh, BCL10 / RFU, UHRF1BP1L / Fold change vs veh, UHRF1BP1L / RFU, BET1 / Fold change vs veh, BET1 / RFU, CNOT2 / Fold change vs veh, CNOT2 / RFU, ZNF268 / Fold change vs veh, ZNF268 / Fold change vs veh, ZNF507 / RFU, DGCR2 / Fold change vs veh, DGCR2 / RFU, WDSUB1 / Fold change vs veh, WDSUB1 / Fold change vs veh, HSP90B1 /// MIR3652 / RFU, ADSS / Fold change vs veh, ADSS / RFU, GK / Fold change vs veh, GK / RFU, ZNF148 / Fold change vs veh, ZNF148 / RFU, TAF9 / Fold change vs veh, TAF9 / RFU, SLC1A5 / Fold change vs veh, SLC1A5 / RFU, SLMO2 / Fold change vs veh, SLMO2 / RFU, ABCC4 / Fold change vs veh, ABCC4 / RFU, LOC101060439 /// RAP1B / Fold change vs veh, LOC101060439 /// RAP1B / RFU, RFX7 / Fold change vs veh, RFX7 / RFU, GTPBP10 / Fold change vs veh, GTPBP10 / RFU, CNEP1R1 / Fold change vs veh, CNEP1R1 / RFU, BIVM-ERCC5 /// ERCC5 / Fold change vs veh, BIVM-ERCC5 /// ERCC5 / RFU, ILF3 / Fold change vs veh, ILF3 / RFU 11762660_at / Fold change /veh 11762660_at / RFU VCAN (11757783_s_at) / Fold change /veh VCAN (11757783_s_at) / RFU DDX43 (11728927_at) / Fold change /veh DDX43 (11728927_at) / RFU KRT8 (11758188_x_at) / Fold change /veh KRT8 (11758188_x_at) / RFU NKD1 (11759106_at) / Fold change /veh NKD1 (11759106_at) / RFU SRD5A1 (11742802_a_at) / Fold change /veh SRD5A1 (11742802_a_at) / RFU TPSAB1 /// TPSB2 (11721975_s_at) / Fold change /veh TPSAB1 /// TPSB2 (11721975_s_at) / RFU GSTM3 (11746129_a_at) / Fold change /veh GSTM3 (11746129_a_at) / RFU IL23R (11737362_x_at) / Fold change /veh IL23R (11737362_x_at) / RFU TMEM51 (11727254_a_at) / Fold change /veh TMEM51 (11727254_a_at) / RFU PIWIL2 (11732686_x_at) / Fold change /veh PIWIL2 (11732686_x_at) / RFU ORM1 (11744905_x_at) / Fold change /veh ORM1 (11744905_x_at) / RFU CCDC152 (11743942_at) / Fold change /veh CCDC152 (11743942_at) / RFU ECM1 (11717891_a_at) / Fold change /veh ECM1 (11717891_a_at) / RFU IL23R (11748794_a_at) / Fold change /veh IL23R (11748794_a_at) / RFU TNFAIP8L3 (11732012_x_at) / Fold change /veh TNFAIP8L3 (11732012_x_at) / RFU MBOAT4 (11741988_at) / Fold change /veh MBOAT4 (11741988_at) / RFU 11764193_at / Fold change /veh 11764193_at / RFU TMEM53 (11763286_at) / Fold change /veh TMEM53 (11763286_at) / RFU MAGEB2 (11727129_at) / Fold change /veh MAGEB2 (11727129_at) / RFU TMEM200A (11744735_a_at) / Fold change /veh TMEM200A (11744735_a_at) / RFU CCDC152 (11751479_a_at) / Fold change /veh CCDC152 (11751479_a_at) / RFU FAM211A (11726209_a_at) / Fold change /veh FAM211A (11726209_a_at) / RFU RGS16 (11746705_a_at) / Fold change /veh RGS16 (11746705_a_at) / RFU VCAN (11755009_s_at) / Fold change /veh VCAN (11755009_s_at) / RFU RHOB (11743442_s_at) / Fold change /veh RHOB (11743442_s_at) / RFU RGS16 (11720943_a_at) / Fold change /veh RGS16 (11720943_a_at) / RFU RGS16 (11720944_at) / Fold change /veh RGS16 (11720944_at) / RFU, VPS4B / Fold change vs veh, VPS4B / RFU, CREB1 / Fold change vs veh, CREB1 / RFU, DNAJC13 / Fold change vs veh, DNAJC13 / RFU, GNAQ / Fold change vs veh, GNAQ / RFU, CDK5R1 / Fold change vs veh, CDK5R1 / RFU, ZRANB3 / Fold change vs veh, ZRANB3 / RFU, CUL4A / Fold change vs veh, CUL4A / RFU, CCNY / Fold change vs veh, CCNY / RFU, UFL1 / Fold change vs veh, UFL1 / RFU, COG3 / Fold change vs veh, COG3 / RFU, DIAPH2 / Fold change vs veh, DIAPH2 / RFU, SKA2 / Fold change vs veh, SKA2 / RFU, AFF3 / Fold change vs veh, AFF3 / RFU, LMF1 / Fold change vs veh, LMF1 / RFU, IPO11 / Fold change vs veh, IPO11 / RFU, DFFB / Fold change vs veh, DFFB / RFU, FOXP1 / Fold change vs veh, FOXP1 / RFU, CARD8 / Fold change vs veh, CARD8 / RFU, STRN3 / Fold change vs veh, STRN3 / RFU, ADK / Fold change vs veh, ADK / RFU, RASSF2 / Fold change vs veh, RASSF2 / RFU, WIPF1 / Fold change vs veh, WIPF1 / RFU, LARP1B / Fold change vs veh, LARP1B / RFU, RASA1 / Fold change vs veh, RASA1 / RFU, RB1 / Fold change vs veh, RB1 / RFU, PPFIA1 / Fold change vs veh, PPFIA1 / RFU, MAT2A / Fold change vs veh, MAT2A / RFU, CCT5 / Fold change vs veh, CCT5 / RFU, WDR92 / Fold change vs veh, WDR92 / RFU, CUX1 / Fold change vs veh, CUX1 / RFU, TTC7A / Fold change vs veh, TTC7A / RFU, TMEM135 / Fold change vs veh, TMEM135 / RFU, DEPTOR / Fold change vs veh, DEPTOR / RFU, CPM / Fold change vs veh, CPM / RFU, DNAJB6 / Fold change vs veh, DNAJB6 / RFU, CACNA2D3 / Fold change vs veh, CACNA2D3 / RFU, DTX4 / Fold change vs veh, DTX4 / RFU, TFCP2 / Fold change vs veh, TFCP2 / RFU, GMCL1 /// GMCL1P1 / Fold change vs veh, GMCL1 /// GMCL1P1 / RFU, AEBP2 / Fold change vs veh, AEBP2 / RFU, SNHG1 /// SNORD22 /// SNORD25 /// SNORD26 /// SNORD27 /// SNORD28 /// SNORD29 /// SNORD31 / Fold change vs veh, SNHG1 /// SNORD22 /// SNORD25 /// SNORD26 /// SNORD27 /// SNORD28 /// SNORD29 /// SNORD31 / Fold change (Aza/veh), C12orf56 (ProbeSet 11735607_a_at) / Fold change (ACY-1035/veh), C12orf56 (ProbeSet 11735607_a_at) / Fold change (Aza/veh), FGFR1OP (ProbeSet 11751329_s_at) / Fold change (ACY-1035/veh), FGFR1OP (ProbeSet 11751329_s_at) / Fold change (Aza/veh), VPS36 (ProbeSet 11739960_a_at) / Fold change (ACY-1035/veh), VPS36 (ProbeSet 11739960_a_at) / RFU SYPL1 (11715823_x_at) / Fold change /veh SYPL1 (11715823_x_at) / RFU IGFBP7 (11715501_s_at) / Fold change /veh IGFBP7 (11715501_s_at) / RFU REEP3 (11722064_at) / Fold change /veh REEP3 (11722064_at) / RFU IGLL1 (11728026_x_at) / Fold change /veh IGLL1 (11728026_x_at): dose or concentration left out as unconfirmed",
  "conditions": "ProbeSet 11741123_x_at; LIST D",
  "data": [
    {"smiles": "Nc1ncn([C@@H]2O[C@H](CO)[C@@H](O)[C@H]2O)c(=O)n1", "note": "[azacitidine]", "values": [
      {"measurement": "RFU, ADK", "value": 188.85, "unit": "RFU"}
    ]}
  ]
}
